Each substance was assayed on HLA-A*24 (assay: MHC binding assay, UV-ligand exchange with beta2m ELISA, HLA-A*24). Details: binding to HLA-A*24 ranged by peptide exchange yield (UV-ligand exchange, beta2m ELISA).
Design: species or system human
Excerpt: Candidate peptides for T cell based therapies according to the present invention were further tested for their MHC binding capacity (affinity). The individual peptide-MHC complexes were produced by UV-ligand exchange, where a UV-sensitive peptide is cleaved upon UV-irradiation, and exchanged with the peptide of interest as analyzed. Only peptide candidates that can effectively bind and stabilize the peptide-receptive MHC molecules prevent dissociation of the MHC complexes. To determine the yield of the exchange reaction, an ELISA was performed based on the detection of the light chain (ß2 m) of stabilized MHC complexes. The assay was performed as generally described in Rodenko et al. (Rodenko et al., 2006).
96 well MAXISorp plates (NUNC) were coated over night with 2 ug/ml streptavidin in PBS at room temperature, washed 4× and blocked for 1 h at 37° C. in 2% BSA containing blocking buffer. […] Peptide-MHC monomers of the UV-exchange reaction were diluted 100 fold in blocking buffer. Samples were incubated for 1 h at 37° C., washed four times, incubated with 2 ug/ml HRP conjugated anti-β2 m for 1h at 37° C., washed again and detected with TMB solution that is stopped with […]. Absorption was measured at 450 nm. Candidate peptides that show a high exchange yield (preferably higher than 50%, most preferred higher than 75%) are generally preferred for a generation and production of antibodies or fragments thereof, and/or T cell receptors or fragments thereof, as they show sufficient avidity to the MHC molecules and prevent dissociation of the MHC complexes.

Row | Peptide exchange | Substance
1 | +++ (50%-75% = +++) | 146 (NYYERIHAL; listed as Homo sapiens) [compound 146]
2 | +++ (50%-75% = +++) | 147 (LYLAFPLAF; listed as Homo sapiens) [compound 147]
3 | ++++ (>=75% = ++++) | 148 (SYGTVSQIF; listed as Homo sapiens) [compound 148]
4 | ++++ (>=75% = ++++) | 149 (SYGTVSQI; listed as Homo sapiens) [compound 149]
5 | ++ (20%-49% = ++) | 152 (KFFDDLGDELLF; listed as Homo sapiens) [compound 152]
6 | ++++ (>=75% = ++++) | 153 (VYVPFGGKSMITF; listed as Homo sapiens) [compound 153]
7 | ++++ (>=75% = ++++) | 154 (VYGVPTPHF; listed as Homo sapiens) [compound 154]
8 | ++++ (>=75% = ++++) | 155 (IYKWITDNF; listed as Homo sapiens) [compound 155]
9 | +++ (50%-75% = +++) | 159 (IYEETRGVL; listed as Homo sapiens) [compound 159]
10 | +++ (50%-75% = +++) | 165 (EYFTPLLSGQF; listed as Homo sapiens) [compound 165]
11 | +++ (50%-75% = +++) | 168 (RYLEAALRL; listed as Homo sapiens) [compound 168]
12 | +++ (50%-75% = +++) | 169 (NYITGKGDVF; listed as Homo sapiens) [compound 169]
13 | ++++ (>=75% = ++++) | 170 (QYPFHVPLL; listed as Homo sapiens) [compound 170]
14 | +++ (50%-75% = +++) | 171 (NYEDHFPLL; listed as Homo sapiens) [compound 171]
15 | ++++ (>=75% = ++++) | 173 (QYLEKYYNL; listed as Homo sapiens) [compound 173]
16 | +++ (50%-75% = +++) | 176 (FYINGQYQF; listed as Homo sapiens) [compound 176]
17 | +++ (50%-75% = +++) | 178 (NYSSAVQKF; listed as Homo sapiens) [compound 178]
18 | +++ (50%-75% = +++) | 179 (TYIPVGLGRLL; listed as Homo sapiens) [compound 179]
19 | ++++ (>=75% = ++++) | 182 (AYAQLGYLLF; listed as Homo sapiens) [compound 182]

Row | Peptide exchange | Substance
20 | +++ (50%-75% = +++) | 183 (PYLQDVPRI; listed as Homo sapiens) [compound 183]
21 | ++++ (>=75% = ++++) | 184 (IYSVGAFENF; listed as Homo sapiens) [compound 184]
22 | ++++ (>=75% = ++++) | 185 (QYLVHVNDL; listed as Homo sapiens) [compound 185]
23 | ++++ (>=75% = ++++) | 187 (AYAANVHYL; listed as Homo sapiens) [compound 187]
24 | +++ (50%-75% = +++) | 188 (GYKTFFNEF; listed as Homo sapiens) [compound 188]
25 | +++ (50%-75% = +++) | 191 (TYPDGTYTGRIF; listed as Homo sapiens) [compound 191]
26 | +++ (50%-75% = +++) | 192 (RYSTFSEIF; listed as Homo sapiens) [compound 192]
27 | +++ (50%-75% = +++) | 193 (LYLENNAQTQF; listed as Homo sapiens) [compound 193]
28 | +++ (50%-75% = +++) | 194 (VYQSLSNSL; listed as Homo sapiens) [compound 194]
29 | +++ (50%-75% = +++) | 195 (AYIKGGWIL; listed as Homo sapiens) [compound 195]
30 | ++++ (>=75% = ++++) | 196 (GYIRGSWQF; listed as Homo sapiens) [compound 196]
31 | ++++ (>=75% = ++++) | 197 (IFTDIFHYL; listed as Homo sapiens) [compound 197]
32 | ++ (20%-49% = ++) | 198 (DYVGFTLKI; listed as Homo sapiens) [compound 198]
33 | +++ (50%-75% = +++) | 199 (SYLNHLNNL; listed as Homo sapiens) [compound 199]
34 | +++ (50%-75% = +++) | 200 (VFIHHLPQF; listed as Homo sapiens) [compound 200]
35 | +++ (50%-75% = +++) | 201 (GYNPNRVFF; listed as Homo sapiens) [compound 201]
36 | +++ (50%-75% = +++) | 202 (RYVEGIVSL; listed as Homo sapiens) [compound 202]
37 | +++ (50%-75% = +++) | 204 (EYLSTCSKL; listed as Homo sapiens) [compound 204]

Second part, the substance before the results:

Row | Substance | Peptide exchange
38 | 97 (TYTFLKETF; listed as Homo sapiens) [compound 97] | ++++ (>=75% = ++++)
39 | 99 (QYILAVPVL; listed as Homo sapiens) [compound 99] | ++++ (>=75% = ++++)
40 | 100 (VYIESRIGTSTSF; listed as Homo sapiens) [compound 100] | +++ (50%-75% = +++)
41 | 102 (VYPFENFEF; listed as Homo sapiens) [compound 102] | +++ (50%-75% = +++)
42 | 107 (KYFPYLVVI; listed as Homo sapiens) [compound 107] | +++ (50%-75% = +++)
43 | 108 (PYLVVIHTL; listed as Homo sapiens) [compound 108] | +++ (50%-75% = +++)
44 | 109 (LFITGGQFF; listed as Homo sapiens) [compound 109] | ++++ (>=75% = ++++)
45 | 110 (SYPKIIEEF; listed as Homo sapiens) [compound 110] | +++ (50%-75% = +++)
46 | 112 (IYNFVESKL; listed as Homo sapiens) [compound 112] | +++ (50%-75% = +++)
47 | 113 (IYSFHTLSF; listed as Homo sapiens) [compound 113] | +++ (50%-75% = +++)
48 | 114 (QYLDGTWSL; listed as Homo sapiens) [compound 114] | ++++ (>=75% = ++++)
49 | 116 (AYVIAVHLF; listed as Homo sapiens) [compound 116] | ++++ (>=75% = ++++)
50 | 117 (IYLSDLTYI; listed as Homo sapiens) [compound 117] | +++ (50%-75% = +++)
51 | 118 (KYLNSVQYI; listed as Homo sapiens) [compound 118] | +++ (50%-75% = +++)
52 | 119 (VYRVYVTTF; listed as Homo sapiens) [compound 119] | +++ (50%-75% = +++)
53 | 120 (GYIEHFSLW; listed as Homo sapiens) [compound 120] | ++++ (>=75% = ++++)
54 | 121 (RYGLPAAWSTF; listed as Homo sapiens) [compound 121] | +++ (50%-75% = +++)
55 | 122 (EYQARIPEF; listed as Homo sapiens) [compound 122] | +++ (50%-75% = +++)

Row | Substance | Peptide exchange
56 | 123 (VYTPVLEHL; listed as Homo sapiens) [compound 123] | ++ (20%-49% = ++)
57 | 124 (TYKDYVDLF; listed as Homo sapiens) [compound 124] | + (<20% = +)
58 | 125 (VFSRDFGLLVF; listed as Homo sapiens) [compound 125] | +++ (50%-75% = +++)
59 | 127 (QYFTGNPLF; listed as Homo sapiens) [compound 127] | +++ (50%-75% = +++)
60 | 128 (VYPFDWQYI; listed as Homo sapiens) [compound 128] | ++++ (>=75% = ++++)
61 | 129 (KYIDYLMTW; listed as Homo sapiens) [compound 129] | ++++ (>=75% = ++++)
62 | 131 (EYLDRIGQLFF; listed as Homo sapiens) [compound 131] | +++ (50%-75% = +++)
63 | 133 (KYLEDMKTYF; listed as Homo sapiens) [compound 133] | +++ (50%-75% = +++)
64 | 134 (AYIPTPIYF; listed as Homo sapiens) [compound 134] | +++ (50%-75% = +++)
65 | 135 (VYEAMVPLF; listed as Homo sapiens) [compound 135] | ++++ (>=75% = ++++)
66 | 136 (IYPEWPVVFF; listed as Homo sapiens) [compound 136] | +++ (50%-75% = +++)
67 | 138 (VYNAVSTSF; listed as Homo sapiens) [compound 138] | ++ (20%-49% = ++)
68 | 139 (IFGIFPNQF; listed as Homo sapiens) [compound 139] | +++ (50%-75% = +++)
69 | 140 (RYLINSYDF; listed as Homo sapiens) [compound 140] | ++++ (>=75% = ++++)
70 | 141 (SYNGHLTIWF; listed as Homo sapiens) [compound 141] | +++ (50%-75% = +++)
71 | 143 (KYIFQLNEI; listed as Homo sapiens) [compound 143] | +++ (50%-75% = +++)
72 | 144 (VFASLPGFLF; listed as Homo sapiens) [compound 144] | ++++ (>=75% = ++++)
73 | 145 (VYALKVRTI; listed as Homo sapiens) [compound 145] | +++ (50%-75% = +++)
